Experiment: method code SF, from DOI: 10.1021/jm00344a020, PMID: 7057427

In order of falling logP:
1. O=C(NC1CCCC1)N1CC=CCC1  1.92
2. O=C(NN1CC=CCC1)C1CCCCCC1  1.5
3. O=C(NN1CC=CCC1)C1CC1  1.12
4. CCOC(=O)NN1CC=CCC1  1.09
5. CC(=O)NN1CC=CCC1  0.52
6. O=C(NN1CC=CCC1)C1CCCCC1  0.45

Experiment: method code SF-AS, from DOI: 10.1021/jm00344a020, PMID: 7057427

In order of falling logP:
1. O=C(COc1cccc2ccccc12)NN1CC=CCC1  1.96
2. O=C(NN1CC=CCC1)c1cccs1  1.88
3. O=C(NN1CC=CCC1)C12CC3CC(CC(C3)C1)C2  1.45
4. CC(C)(C)C(=O)NN1CC=CCC1  1.03
5. O=C(NN1CC=CCC1)c1ccco1  0.81
6. O=C(Cc1ccc2c(c1)OCO2)NN1CC=CCC1  0.68
7. O=C(Cc1cccnc1)NN1CC=CCC1  0.05
8. O=C(COc1ccccc1)NN1CC=CCC1  -0.06
9. O=C(NN1CC=CCC1)c1cccc[n+]1[O-]  -0.32
10. O=C(NN1CC=CCC1)c1cccc(C(=O)NN2CC=CCC2)n1  -0.52

Source: the SangsterLogP compilation
